Experimental data from ChEMBL document CHEMBL1201862, “PubChem BioAssay data set” (2004).
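A five-concentration, 48-hour dose response in 96-well plates underlies each endpoint, interpolated linearly between surrounding concentrations. The concentration for 50% growth inhibition is given as GI50.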 The source made the active and inactive calls. No stated cut-off is given here; in the data, active = GI50 up to about 1.1 µM and inactive = higher.

Columns and labels:
Assay in all cases: NCI-60 cell line screen, 48 h
MOLT-4 = test system: MOLT-4
U-251 = test system: U-251
Malme-3M = test system: Malme-3M
CCRF-CEM = test system: CCRF-CEM
Hs-578T = test system: Hs-578T
OVCAR-3 = test system: OVCAR-3
SR = test system: SR
COLO 205 = test system: COLO 205
SF-539 = test system: SF-539
LOX IMVI = test system: LOX IMVI
OVCAR-8 = test system: OVCAR-8
HCC 2998 = test system: HCC 2998
PC-3 = test system: PC-3
A549 = test system: A549
BT-549 = test system: BT-549
MDA-N = test system: MDA-N
786-0 = test system: 786-0
SK-MEL-28 = test system: SK-MEL-28
OVCAR-5 = test system: OVCAR-5
SK-MEL-2 = test system: SK-MEL-2

Row | SMILES | GI50 (MOLT-4) | GI50 (U-251) | GI50 (Malme-3M) | GI50 (CCRF-CEM) | GI50 (Hs-578T) | GI50 (OVCAR-3) | GI50 (SR) | GI50 (COLO 205) | GI50 (SF-539) | GI50 (LOX IMVI) | GI50 (OVCAR-8) | GI50 (HCC 2998) | GI50 (PC-3) | GI50 (A549) | GI50 (BT-549) | GI50 (MDA-N) | GI50 (786-0) | GI50 (SK-MEL-28) | GI50 (OVCAR-5) | GI50 (SK-MEL-2)
1 | CCCNC(=S)N/N=C(\C)c1ccc(S(=O)(=O)N(C)c2ccccc2)cc1 | > 100 µM (inactive) | 19.7 µM (inactive) | > 100 µM (inactive) | > 31.6 µM (inactive) | 3.64 µM (inactive) | > 59.2 µM (inactive) | 49.5 µM (inactive) | > 100 µM (inactive) | 5.25 µM (inactive) | > 100 µM (inactive) | 24.5 µM (inactive) | > 100 µM (inactive) | > 100 µM (inactive) | 46.3 µM (inactive) | > 100 µM (inactive) | > 100 µM (inactive) | 19.3 µM (inactive) | > 100 µM (inactive) | > 67.6 µM (inactive) | 40.8 µM (inactive)
2 | Cc1cc(S(=O)(=O)Nc2nc3ccccc3n2-c2ccccc2)c(S)cc1Cl | > 100 µM (inactive) | > 100 µM (inactive) | > 100 µM (inactive) | > 100 µM (inactive) | > 100 µM (inactive) | > 100 µM (inactive) | 69.7 µM (inactive) | > 100 µM (inactive) | > 100 µM (inactive) | > 100 µM (inactive) | > 100 µM (inactive) | > 100 µM (inactive) | > 100 µM (inactive) | > 100 µM (inactive) | > 100 µM (inactive) | 87.5 µM (inactive) | > 100 µM (inactive) | > 100 µM (inactive) | > 100 µM (inactive) | > 100 µM (inactive)
3 | CC(=O)O[C@H]1C(=O)[C@@]2(C)[C@H]([C@H](OC(=O)c3ccncc3)[C@]3(O)C[C@H](OC(=O)[C@H](O)[C@@H](NC(=O)c4ccccc4)c4ccccc4)C(C)=C1C3(C)C)[C@]1(OC(C)=O)CO[C@@H]1C[C@@H]2O | 1.39 µM (inactive) | 2.34 µM (inactive) | 2.31 µM (inactive) | 0.875 µM (active) | 1.22 µM (inactive) | 1.25 µM (inactive) | 1.09 µM (active) | 2.08 µM (inactive) | 0.875 µM (active) | 1.42 µM (inactive) | 8.53 µM (inactive) | 3.24 µM (inactive) | 6.56 µM (inactive) | 18 µM (inactive) | 14.5 µM (inactive) | 0.877 µM (active) | 6.81 µM (inactive) | > 11.6 µM (inactive) | 10 µM (inactive) | 6.71 µM (inactive)
4 | O=[N+]([O-])C1(CO)COC2(OC1)c1ccccc1-c1ccccc12 | 53.2 µM (inactive) | > 77.8 µM (inactive) | 48.5 µM (inactive) | 25.2 µM (inactive) | > 100 µM (inactive) | > 73.5 µM (inactive) | 40.6 µM (inactive) | 40.5 µM (inactive) | > 69.3 µM (inactive) | 45.6 µM (inactive) | > 78.3 µM (inactive) | > 100 µM (inactive) | > 74.8 µM (inactive) | > 100 µM (inactive) | > 53.6 µM (inactive) | > 64 µM (inactive) | 63.8 µM (inactive) | > 100 µM (inactive) | > 100 µM (inactive) | > 100 µM (inactive)
5 | COc1cc2c(cc1OC)[C@H]1CN3CCC[C@H]3C=C1c1ccc(OC)c(O)c1-2 | 0.000486 µM (active) | 0.000605 µM (active) | 0.000608 µM (active) | 0.000422 µM (active) | 0.00192 µM (active) | < 0.0001 µM (active) | 0.00059 µM (active) | 0.0006 µM (active) | 0.000711 µM (active) | 0.000329 µM (active) | 0.000557 µM (active) | 0.0029 µM (active) | 0.00359 µM (active) | 0.000598 µM (active) | 0.0195 µM (active) | 0.00346 µM (active) | 0.000728 µM (active) | 0.0006 µM (active) | 0.000653 µM (active) | 0.000505 µM (active)
6 | COc1ccc(C2SC(=N)Nc3c2c(C)nn3C(=O)c2ccncc2)cc1OC (stereo not given) | > 10 µM (inactive) | > 10 µM (inactive) | > 10 µM (inactive) | > 10 µM (inactive) | > 10 µM (inactive) | > 10 µM (inactive) | > 10 µM (inactive) | > 10 µM (inactive) | > 10 µM (inactive) | > 10 µM (inactive) | > 10 µM (inactive) | > 10 µM (inactive) | > 10 µM (inactive) | > 10 µM (inactive) | > 10 µM (inactive) | > 10 µM (inactive) | > 10 µM (inactive) | > 10 µM (inactive) | > 10 µM (inactive) | > 10 µM (inactive)
7 | COc1ccccc1/N=N/C(=N\NC(=O)c1ccc(C)cc1)c1ccc(N(CCC#N)CCC#N)cc1C | 35.2 µM (inactive) | 43.9 µM (inactive) | 25.4 µM (inactive) | 0.693 µM (active) | 39.3 µM (inactive) | 18.7 µM (inactive) | 29.3 µM (inactive) | 15.7 µM (inactive) | > 100 µM (inactive) | 40.9 µM (inactive) | 42.3 µM (inactive) | 42.6 µM (inactive) | 35 µM (inactive) | 40.9 µM (inactive) | 35.2 µM (inactive) | 45.6 µM (inactive) | 70.3 µM (inactive) | > 100 µM (inactive) | > 100 µM (inactive) | 36.4 µM (inactive)
8 | C/C=C1/CN2CCC34C5=CC(=O)C(c6cc7c(cc6OC)N(C)C6=C(C(=O)OC)CC8(CC)CCCN9CCC67C98)=CC5=NC23CCC1C4C(=O)OC (stereo not given) | 2.45 µM (inactive) | 15.2 µM (inactive) | 15 µM (inactive) | 2.28 µM (inactive) | 7.21 µM (inactive) | 14.3 µM (inactive) | 2.73 µM (inactive) | 8.61 µM (inactive) | 14.6 µM (inactive) | 16.7 µM (inactive) | 14.9 µM (inactive) | 15.7 µM (inactive) | 13 µM (inactive) | 16.2 µM (inactive) | 16 µM (inactive) | 14 µM (inactive) | 12.1 µM (inactive) | 16.8 µM (inactive) | 12.2 µM (inactive) | 16.5 µM (inactive)
9 | CN1c2c(O)nc(N)nc2NCC1CCNc1ccc(C(=O)NC(CCC(=O)O)C(=O)O)cc1 (stereo not given) | 33 µM (inactive) | 32.4 µM (inactive) | 1410 µM (inactive) | 62.5 µM (inactive) | 2120 µM (inactive) | 857 µM (inactive) | 25.5 µM (inactive) | 1330 µM (inactive) | 132 µM (inactive) | 4.06 µM (inactive) | 1160 µM (inactive) | 993 µM (inactive) | 7.16 µM (inactive) | 242 µM (inactive) | 1440 µM (inactive) | 112 µM (inactive) | 4.59 µM (inactive) | 695 µM (inactive) | 1520 µM (inactive) | 1470 µM (inactive)
10 | C/C(=N\O)c1ccc(Nc2c3ccccc3nc3occc23)cc1 | 0.169 µM (active) | 0.333 µM (active) | 11.5 µM (inactive) | 0.184 µM (active) | 0.352 µM (active) | 0.695 µM (active) | 0.023 µM (active) | 0.156 µM (active) | 0.169 µM (active) | 0.29 µM (active) | 0.531 µM (active) | 0.316 µM (active) | 0.327 µM (active) | 0.263 µM (active) | 0.366 µM (active) | 0.0847 µM (active) | 0.51 µM (active) | 0.659 µM (active) | 2.75 µM (inactive) | 0.196 µM (active)
